The target of assay [1] is T1, Cannabinoid receptor 2 (Homo sapiens, UniProt P34972). Kind of assay: SAR analysis of agonists of the Cannabinoid Receptor 2 using an Image-Based Assay - Set 2. [Related pubchem assays (depositor defined):AID1961, AID1965]. The format is functional.
Assay [2] deals with T2, Cannabinoid receptor 1 (Homo sapiens, UniProt P21554). Nature of the assay: SAR analysis of antagonists of the Cannabinoid Receptor 1 using an Image-Based Assay. [Related pubchem assays (depositor defined):AID1961, AID1965]. The format is functional.
The target of assay [3] is T1, Cannabinoid receptor 2. Nature of the assay: SAR analysis of antagonists of the Cannabinoid Receptor 2 using an Image-Based Assay - Set 2. [Related pubchem assays (depositor defined):AID1961, AID1965]. The format is functional.
For assay [4], the target named is T3, G-protein coupled receptor 55 (Homo sapiens, UniProt Q9Y2T6). Nature of the assay: SAR analysis of selective Agonists of GPR55 using an Image-Based Assay. [Related pubchem assays (depositor defined):AID1961, AID1965]. The format is functional.
The target in assay [5] is T4, Alkaline phosphatase, tissue-nonspecific isozyme (Homo sapiens, UniProt P05186).
T4 sequence (P05186 whole entry): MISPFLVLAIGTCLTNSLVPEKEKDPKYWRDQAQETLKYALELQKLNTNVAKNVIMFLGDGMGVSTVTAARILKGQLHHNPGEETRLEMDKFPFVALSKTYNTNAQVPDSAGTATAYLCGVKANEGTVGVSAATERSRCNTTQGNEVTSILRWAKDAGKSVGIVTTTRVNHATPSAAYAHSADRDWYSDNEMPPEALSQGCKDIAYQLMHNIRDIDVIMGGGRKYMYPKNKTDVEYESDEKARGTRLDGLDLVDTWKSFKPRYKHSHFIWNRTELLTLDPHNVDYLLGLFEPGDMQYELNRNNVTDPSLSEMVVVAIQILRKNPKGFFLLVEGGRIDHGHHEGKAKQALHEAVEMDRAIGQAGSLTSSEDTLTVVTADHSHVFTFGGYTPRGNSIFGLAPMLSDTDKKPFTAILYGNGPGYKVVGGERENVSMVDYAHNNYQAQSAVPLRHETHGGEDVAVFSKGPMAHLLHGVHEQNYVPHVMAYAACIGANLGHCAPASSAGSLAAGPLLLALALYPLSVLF
Kind of assay: TNAP enzyme activators, dose response, selectivity assay for mouse IAP activator project, biochemical, TNAP isozyme, mouse IAP uHTS hits (AID 488880). The format is functional.

The target in assay [6] is 1-phosphatidylinositol 4,5-bisphosphate phosphodiesterase gamma-1 (Homo sapiens, UniProt P19174). Nature of the assay: Counterscreen for inhibitors of phospholipase C isozymes (PLC-B3): Fluorescence-based biochemical high throughput dose response assay to identify inhibitors of phospholipase C isozymes (PLC-gamma1).
Assay [7] deals with Induced myeloid leukemia cell differentiation protein Mcl-1 (Homo sapiens, UniProt Q07820). The format is functional.
Assay [8] deals with Intestinal-type alkaline phosphatase (Homo sapiens, UniProt P09923). Nature of the assay: activation of human intestinal alkaline phosphatase – biochemical, dose response (AID 488873). The format is functional.
Assay [9] concerns the target 1-phosphatidylinositol 4,5-bisphosphate phosphodiesterase beta-3 (Homo sapiens, UniProt Q01970). Kind of assay: Fluorescence-based biochemical high throughput dose response assay to identify inhibitors of phospholipase C isozymes (PLC-B3).
Assay [10] has as its target NS3 (Hepatitis C virus, UniProt A3EZJ3). Kind of assay: PubChem AID 2173. Also noted: species or system Hepacivirus hominis.
For assay [11], the target named is Intestinal-type alkaline phosphatase (Mus musculus, UniProt P24822). Nature of the assay: mouse intestinal alkaline phosphatase activators, dose response, biochemical, luminescence, uHTS hits (AID 488783). The format is functional.
Assay [12] has as its target T5, E3 ubiquitin-protein ligase XIAP (Homo sapiens, UniProt P98170). Nature of the assay: Counter Screen using XIAP-Bir3 of the Chemical Antagonists of IAP-family anti-apoptotic proteins confirmation assay. [Related pubchem assays (depositor defined):AID1018, AID1449, AID1513, AID1638, AID1749, AID1750, AID488957, AID488963].
The target in assay [13] is T5, E3 ubiquitin-protein ligase XIAP. Kind of assay: Chemical Antagonists of IAP-family anti-apoptotic proteins confirmation. [Related pubchem assays (depositor defined):AID1018, AID1513, AID1514, AID1638, AID1749, AID1750, AID488957, AID488963].
Assay [14] deals with Hexokinase-1 (Homo sapiens, UniProt P19367). Kind of assay: hexokinase 1 activators, dose response, selectivity assay for HKDC1 activator project, biochemical (AID 504762). The format is functional.
For assay [15], the target named is Hexokinase HKDC1 (Homo sapiens, UniProt Q2TB90). Kind of assay: HKDC1 hexokinase activators, dose response, biochemical, W721R variant (AID 504730). The format is functional.
The target in assay [16] is T3, G-protein coupled receptor 55. Nature of the assay: SAR analysis of selective Agonists of GPR55 using an Image-Based Assay - Set 2. [Related pubchem assays (depositor defined):AID1961, AID1965]. The format is functional.
For assay [17], the target named is T6, G-protein coupled receptor 35 (Homo sapiens, UniProt Q9HC97). Nature of the assay: SAR analysis of Antagonists of the GPR35 Receptor using an Image-Based Assay - Set 4. [Related pubchem assays (depositor defined):[…]]. The format is functional.
Assay [18] has as its target T6, G-protein coupled receptor 35. Nature of the assay: SAR analysis of Agonists of the GPR35 Receptor using an Image-Based Assay - Set 3. [Related pubchem assays (depositor defined):AID1961, AID1965]. The format is functional.
In assay [19] the target is T2, Cannabinoid receptor 1. Nature of the assay: SAR analysis of antagonists of the Cannabinoid Receptor 1 using an Image-Based Assay - Set 3. [Related pubchem assays (depositor defined):AID1961, AID1965]. The format is functional.
Assay [20] addresses T2, Cannabinoid receptor 1. Nature of the assay: SAR analysis of agonists of the Cannabinoid Receptor 1 using an Image-Based Assay - Set 3. [Related pubchem assays (depositor defined):AID1961, AID1965]. The format is functional.
In assay [21] the target is Ion channel NompC (Danio rerio, UniProt Q7T1G6). Nature of the assay: Dose response cell-based high-throughput screening assay for agonists of the transient receptor potential channel N1 (TRPN1). [Related pubchem assays (depositor defined):AID1424, AID1448]. The format is functional.
In assay [22] the target is T7, High affinity choline transporter 1 (Homo sapiens, UniProt Q9GZV3).
T7 sequence (Q9GZV3 whole entry): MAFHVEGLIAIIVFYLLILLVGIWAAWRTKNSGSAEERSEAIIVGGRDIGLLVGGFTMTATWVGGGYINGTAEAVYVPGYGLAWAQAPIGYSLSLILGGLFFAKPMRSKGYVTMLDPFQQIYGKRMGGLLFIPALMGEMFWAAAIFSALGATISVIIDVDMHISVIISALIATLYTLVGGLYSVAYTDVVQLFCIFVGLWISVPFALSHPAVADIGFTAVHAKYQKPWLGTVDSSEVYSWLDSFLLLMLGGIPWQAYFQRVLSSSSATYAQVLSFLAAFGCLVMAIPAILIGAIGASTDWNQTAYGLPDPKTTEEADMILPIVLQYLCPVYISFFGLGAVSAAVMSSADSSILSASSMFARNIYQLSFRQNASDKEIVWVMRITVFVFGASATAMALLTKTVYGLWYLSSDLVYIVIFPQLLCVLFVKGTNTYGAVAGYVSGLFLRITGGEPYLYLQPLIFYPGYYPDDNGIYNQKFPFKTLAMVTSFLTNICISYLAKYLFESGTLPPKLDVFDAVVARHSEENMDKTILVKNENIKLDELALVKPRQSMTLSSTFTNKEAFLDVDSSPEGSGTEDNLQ
Nature of the assay: CHT inhibitors, dose response, cell-based, 5-point CRC, membrane potential dye (AID 504840). The format is functional.

For assay [23], the target named is Mucolipin-3 (Homo sapiens, UniProt Q8TDD5). Kind of assay: Fluorescence counterscreen assay for […] agonists: dose response cell-based high-throughput screening assay to identify agonists of the transient receptor potential channel ML3 (TRPML3). [Related pubchem assays: 1424, 1448 ]. The format is functional.
For assay [24], the target named is DNA damage-inducible transcript 3 protein (Mus musculus, UniProt P35639). The format is functional, Cricetulus griseus.
Assay [25] concerns the target T8, Coagulation factor XII (Homo sapiens, UniProt P00748).
T8 sequence (P00748 whole entry): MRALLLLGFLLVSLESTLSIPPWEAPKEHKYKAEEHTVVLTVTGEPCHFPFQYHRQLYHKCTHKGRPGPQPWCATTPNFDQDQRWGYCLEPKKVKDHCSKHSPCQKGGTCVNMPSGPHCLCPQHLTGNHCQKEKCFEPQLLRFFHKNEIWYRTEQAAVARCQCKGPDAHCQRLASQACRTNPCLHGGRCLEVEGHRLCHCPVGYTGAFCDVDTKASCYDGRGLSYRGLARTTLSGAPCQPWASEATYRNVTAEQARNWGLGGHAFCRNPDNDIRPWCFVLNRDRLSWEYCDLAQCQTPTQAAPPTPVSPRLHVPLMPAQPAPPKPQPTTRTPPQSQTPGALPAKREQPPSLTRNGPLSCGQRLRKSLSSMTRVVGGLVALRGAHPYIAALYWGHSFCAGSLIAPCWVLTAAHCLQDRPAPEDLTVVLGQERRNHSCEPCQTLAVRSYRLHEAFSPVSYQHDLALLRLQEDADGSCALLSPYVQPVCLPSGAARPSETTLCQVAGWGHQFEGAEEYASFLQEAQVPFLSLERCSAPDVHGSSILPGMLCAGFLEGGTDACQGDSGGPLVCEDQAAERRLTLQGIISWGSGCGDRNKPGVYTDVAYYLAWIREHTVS
Kind of assay: Factor XIIa Dose Response Confirmation from Single Well HTS. [Related pubchem assays (depositor defined):AID701]. The format is functional.

The target in assay [26] is Sphingosine 1-phosphate receptor 1 (Homo sapiens, UniProt P21453). Kind of assay: Fluorescence-based counterscreen assay for S1P4 agonists: Cell-based dose response high throughput screening assay to identify agonists of the Sphingosine 1-Phosphate Receptor 1 (S1P1). [Related pubchem assays (depositor defined):AID1509, AID1523, AID1801, AID463107, AID463118, AID463119, AID463122, AID463123, AID463129, AID463225, AID504400, AID504460]. The format is functional.

The target in assay [27] is Sphingosine 1-phosphate receptor 4 (Homo sapiens, UniProt O95977). Nature of the assay: Fluorescence dose response cell-based high throughput screening assay for agonists of the Sphingosine 1-Phosphate Receptor 4 (S1P4). [Related pubchem assays: 1509 (Primary screen.), 1523 (Confirmation screen in triplicates.)]. The format is functional.

Structures are written as SMILES. Activity calls are given as the source filed them.

T1 sequence (P34972 whole entry): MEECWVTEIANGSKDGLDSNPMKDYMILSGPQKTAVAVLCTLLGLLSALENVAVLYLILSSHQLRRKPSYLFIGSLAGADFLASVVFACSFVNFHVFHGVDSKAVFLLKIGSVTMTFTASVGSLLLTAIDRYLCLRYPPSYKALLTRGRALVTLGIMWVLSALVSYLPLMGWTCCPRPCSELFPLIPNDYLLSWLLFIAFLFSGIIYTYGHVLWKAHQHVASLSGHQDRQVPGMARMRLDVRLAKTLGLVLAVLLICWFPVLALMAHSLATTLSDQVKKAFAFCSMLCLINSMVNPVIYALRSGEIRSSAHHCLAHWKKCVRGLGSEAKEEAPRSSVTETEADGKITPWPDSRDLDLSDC
T2 sequence (P21554 whole entry): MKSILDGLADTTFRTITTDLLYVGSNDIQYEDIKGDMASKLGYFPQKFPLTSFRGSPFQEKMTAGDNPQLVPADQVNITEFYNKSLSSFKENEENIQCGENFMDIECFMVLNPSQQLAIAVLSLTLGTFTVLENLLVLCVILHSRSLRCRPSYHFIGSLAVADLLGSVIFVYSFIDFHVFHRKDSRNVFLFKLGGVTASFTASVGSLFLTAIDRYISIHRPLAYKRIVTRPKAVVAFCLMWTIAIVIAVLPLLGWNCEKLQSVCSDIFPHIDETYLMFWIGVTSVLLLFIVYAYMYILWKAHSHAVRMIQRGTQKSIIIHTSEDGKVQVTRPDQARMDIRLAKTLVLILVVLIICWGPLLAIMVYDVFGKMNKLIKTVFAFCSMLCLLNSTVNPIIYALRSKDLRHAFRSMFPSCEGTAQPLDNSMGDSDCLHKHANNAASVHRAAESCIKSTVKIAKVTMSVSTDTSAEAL
T5 sequence (P98170 whole entry): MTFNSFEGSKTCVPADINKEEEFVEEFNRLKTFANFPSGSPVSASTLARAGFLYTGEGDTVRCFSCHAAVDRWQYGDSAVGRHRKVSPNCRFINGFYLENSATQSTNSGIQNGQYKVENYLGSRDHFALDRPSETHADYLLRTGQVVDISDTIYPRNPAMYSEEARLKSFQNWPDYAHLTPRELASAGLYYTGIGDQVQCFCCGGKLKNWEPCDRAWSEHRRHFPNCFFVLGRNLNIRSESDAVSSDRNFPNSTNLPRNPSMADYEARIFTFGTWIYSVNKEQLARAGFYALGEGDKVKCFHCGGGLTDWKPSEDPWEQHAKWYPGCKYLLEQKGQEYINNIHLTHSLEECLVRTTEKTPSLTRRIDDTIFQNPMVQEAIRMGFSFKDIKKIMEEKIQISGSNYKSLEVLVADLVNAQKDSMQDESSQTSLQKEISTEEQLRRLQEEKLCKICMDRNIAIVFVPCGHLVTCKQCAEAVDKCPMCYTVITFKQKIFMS
T3 sequence (Q9Y2T6 whole entry): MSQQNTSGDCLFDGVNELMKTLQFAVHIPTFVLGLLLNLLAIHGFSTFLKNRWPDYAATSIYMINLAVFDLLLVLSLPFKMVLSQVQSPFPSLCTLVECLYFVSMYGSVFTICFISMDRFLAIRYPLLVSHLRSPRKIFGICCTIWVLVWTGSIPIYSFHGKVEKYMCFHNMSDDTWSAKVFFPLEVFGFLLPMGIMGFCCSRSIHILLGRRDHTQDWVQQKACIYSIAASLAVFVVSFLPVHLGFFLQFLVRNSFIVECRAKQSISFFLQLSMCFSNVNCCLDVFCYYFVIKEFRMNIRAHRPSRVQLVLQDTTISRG
T6 sequence (Q9HC97 whole entry): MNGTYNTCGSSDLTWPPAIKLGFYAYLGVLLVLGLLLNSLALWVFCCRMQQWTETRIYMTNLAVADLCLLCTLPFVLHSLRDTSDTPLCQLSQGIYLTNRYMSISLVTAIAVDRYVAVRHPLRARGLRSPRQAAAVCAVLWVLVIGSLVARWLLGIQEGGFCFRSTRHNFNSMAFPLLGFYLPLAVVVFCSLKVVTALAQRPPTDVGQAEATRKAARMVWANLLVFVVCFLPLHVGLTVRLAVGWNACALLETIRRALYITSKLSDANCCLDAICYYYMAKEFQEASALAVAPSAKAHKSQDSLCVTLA
Chain of Ion channel NompC (Q7T1G6 whole entry): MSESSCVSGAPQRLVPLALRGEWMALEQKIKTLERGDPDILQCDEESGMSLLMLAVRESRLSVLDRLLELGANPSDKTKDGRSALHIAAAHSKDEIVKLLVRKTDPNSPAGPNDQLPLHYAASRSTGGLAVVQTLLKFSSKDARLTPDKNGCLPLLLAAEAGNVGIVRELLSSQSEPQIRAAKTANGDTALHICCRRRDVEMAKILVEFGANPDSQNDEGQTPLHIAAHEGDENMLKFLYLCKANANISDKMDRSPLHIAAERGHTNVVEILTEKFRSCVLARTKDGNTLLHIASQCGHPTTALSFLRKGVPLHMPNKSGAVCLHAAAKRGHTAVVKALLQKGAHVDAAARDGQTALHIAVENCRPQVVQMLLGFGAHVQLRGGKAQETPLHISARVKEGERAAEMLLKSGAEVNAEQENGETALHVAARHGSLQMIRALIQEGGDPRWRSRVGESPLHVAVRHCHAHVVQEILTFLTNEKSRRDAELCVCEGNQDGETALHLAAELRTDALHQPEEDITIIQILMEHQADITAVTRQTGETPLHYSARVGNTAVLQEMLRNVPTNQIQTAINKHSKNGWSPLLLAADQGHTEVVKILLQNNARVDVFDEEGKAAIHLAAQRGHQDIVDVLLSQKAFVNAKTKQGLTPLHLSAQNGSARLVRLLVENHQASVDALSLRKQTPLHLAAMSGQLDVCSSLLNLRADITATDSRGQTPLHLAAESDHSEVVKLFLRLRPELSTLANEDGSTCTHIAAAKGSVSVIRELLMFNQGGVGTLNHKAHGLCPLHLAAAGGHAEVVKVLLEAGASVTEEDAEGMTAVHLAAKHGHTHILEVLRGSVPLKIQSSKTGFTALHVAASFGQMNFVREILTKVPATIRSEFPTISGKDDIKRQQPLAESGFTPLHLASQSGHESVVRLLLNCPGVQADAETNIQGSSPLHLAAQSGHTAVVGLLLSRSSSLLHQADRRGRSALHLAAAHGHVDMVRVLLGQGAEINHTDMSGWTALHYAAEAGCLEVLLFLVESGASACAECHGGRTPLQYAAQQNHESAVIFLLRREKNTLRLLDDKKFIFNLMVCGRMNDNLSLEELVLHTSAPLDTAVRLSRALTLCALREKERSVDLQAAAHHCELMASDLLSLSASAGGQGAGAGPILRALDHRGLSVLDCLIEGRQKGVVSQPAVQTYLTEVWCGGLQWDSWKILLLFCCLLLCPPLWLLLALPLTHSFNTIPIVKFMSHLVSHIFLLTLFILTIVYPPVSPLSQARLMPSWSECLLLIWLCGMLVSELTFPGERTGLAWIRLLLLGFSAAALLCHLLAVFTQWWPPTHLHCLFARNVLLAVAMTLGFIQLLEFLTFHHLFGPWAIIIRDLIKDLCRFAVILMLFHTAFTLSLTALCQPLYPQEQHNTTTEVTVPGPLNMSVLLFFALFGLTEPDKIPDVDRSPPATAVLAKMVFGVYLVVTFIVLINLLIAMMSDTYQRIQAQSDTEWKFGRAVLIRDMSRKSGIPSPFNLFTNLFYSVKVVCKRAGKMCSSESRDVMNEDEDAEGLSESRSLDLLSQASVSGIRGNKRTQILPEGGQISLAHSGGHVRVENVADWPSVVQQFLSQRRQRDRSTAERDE
Chain of Sphingosine 1-phosphate receptor 4 (O95977 whole entry): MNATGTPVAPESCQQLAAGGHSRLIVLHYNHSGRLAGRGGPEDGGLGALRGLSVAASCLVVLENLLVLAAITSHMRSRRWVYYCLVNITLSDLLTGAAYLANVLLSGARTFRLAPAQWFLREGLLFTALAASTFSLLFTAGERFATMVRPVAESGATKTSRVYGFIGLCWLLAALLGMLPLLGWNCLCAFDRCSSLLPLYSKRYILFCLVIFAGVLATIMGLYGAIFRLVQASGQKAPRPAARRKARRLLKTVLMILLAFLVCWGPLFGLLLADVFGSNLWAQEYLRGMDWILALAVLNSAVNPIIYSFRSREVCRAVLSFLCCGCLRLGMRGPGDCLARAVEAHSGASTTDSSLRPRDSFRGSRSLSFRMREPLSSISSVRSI
Chain of Intestinal-type alkaline phosphatase (Homo sapiens, UniProt P09923) (P09923 whole entry): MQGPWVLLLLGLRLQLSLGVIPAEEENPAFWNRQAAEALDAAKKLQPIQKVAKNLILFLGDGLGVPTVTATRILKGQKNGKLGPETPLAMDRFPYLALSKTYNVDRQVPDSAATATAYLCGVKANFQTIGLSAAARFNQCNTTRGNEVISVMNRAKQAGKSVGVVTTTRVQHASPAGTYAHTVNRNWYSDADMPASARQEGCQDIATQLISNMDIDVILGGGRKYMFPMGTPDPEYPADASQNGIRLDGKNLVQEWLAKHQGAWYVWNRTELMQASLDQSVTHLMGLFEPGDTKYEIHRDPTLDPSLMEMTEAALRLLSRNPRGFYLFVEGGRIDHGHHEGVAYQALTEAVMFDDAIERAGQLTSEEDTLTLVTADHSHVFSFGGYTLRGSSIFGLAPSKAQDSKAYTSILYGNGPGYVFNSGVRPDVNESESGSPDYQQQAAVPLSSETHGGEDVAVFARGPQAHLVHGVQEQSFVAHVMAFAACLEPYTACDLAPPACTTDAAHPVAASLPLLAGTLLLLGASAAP
Chain of Induced myeloid leukemia cell differentiation protein Mcl-1 (Q07820 whole entry): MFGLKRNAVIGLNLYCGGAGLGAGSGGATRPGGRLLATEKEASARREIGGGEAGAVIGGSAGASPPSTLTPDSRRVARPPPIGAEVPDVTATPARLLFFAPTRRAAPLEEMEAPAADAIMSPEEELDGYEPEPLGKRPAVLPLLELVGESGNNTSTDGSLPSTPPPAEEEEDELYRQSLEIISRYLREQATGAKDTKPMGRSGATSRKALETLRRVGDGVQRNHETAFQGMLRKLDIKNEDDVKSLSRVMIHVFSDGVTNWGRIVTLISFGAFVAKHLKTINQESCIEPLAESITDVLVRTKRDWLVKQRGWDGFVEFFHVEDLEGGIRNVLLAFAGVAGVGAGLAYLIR

Regarding `CCCN(CCC)Cc1c(C(=O)NN=Cc2c[nH]c3ccccc23)nnn1-c1nonc1N`, the EC50 was > 32 µM (inactive) in [1] and 0.633 µM (active) in assay [4]. The IC50 in assay [2] and in [3] was > 32 µM (inactive) throughout.

Take `O=C1/C(=C/C=C/c2ccco2)SC(=S)N1c1ccc(O)cc1`: the EC50 in assay [5] is 91.3 µM (active); in [8], 84.7 µM (active); in assay [11], 59 µM (active). Besides, the IC50 was > 123 µM (inactive) in assay [6], 1.72 µM (active) in assay [7], > 123 µM (inactive) in assay [9] and 5.35 µM (active) in assay [10].

On to `CC(C(=O)O)N1Cc2ccccc2C1=O` (centres undefined), for which the IC50 in [12] and in [13] was > 200 µM (inactive) in each case.

In the case of `CSc1nc(N)nc2c1ncn2CC(=O)N[C@H](C)c1cccc2ccccc12`, the EC50 in [14] is 11.8 µM (active); in assay [15], 9.1 µM (active).

Regarding `O=C(Nc1cccc(S(=O)(=O)N2CCOCC2)c1)c1cc2c(s1)CCCC2`, the EC50 in assay [1], in [16], in [18] and in assay [20] was > 32 µM (inactive) throughout. Moreover, the IC50 in assay [17], in assay [3] and in assay [19] was > 32 µM (inactive) in each case.

Consider `CC(C)(C)S(=O)(=O)/C(C#N)=N/Nc1ccc(Cl)cc1`, for which the results for the EC50 in assay [21] and in assay [23] were > 29.9 µM (inactive) and > 29.9 µM (not active), respectively. In assay [22], the concentration for half-maximal inhibition (IC50) is 1.32 µM (active).

Turning to `CCNC(=S)N/N=C/c1cc(Br)cc(Br)c1OC`, the “Absolute IC50 (CHOP)” value in assay [24] was 10 µM.

With `Cc1cccc(C)c1OCC(=O)N/N=C/c1cc2c(cc1[N+](=O)[O-])OCO2`, in [25], the IC50 was > 50 µM (inactive).

In the case of `NC(=S)c1cc2ccc(O)cc2oc1=O`, the EC50 was 52.9 µM (inactive) in assay [26] and 7.68 µM (active) in assay [27].

Source of the values: ChEMBL document CHEMBL1201862, “PubChem BioAssay data set” (2004).
